The source of these data is patent publication US9340600B2 (Indiana University Research and Technology Corporation, priority 2012, dated 2016).

The target in assay [1] is T1, GIP receptor (Homo sapiens, UniProt P48546).
T1 construct: expressed in transfected cells; host or cells: HEK293
T1 sequence (P48546 22-466): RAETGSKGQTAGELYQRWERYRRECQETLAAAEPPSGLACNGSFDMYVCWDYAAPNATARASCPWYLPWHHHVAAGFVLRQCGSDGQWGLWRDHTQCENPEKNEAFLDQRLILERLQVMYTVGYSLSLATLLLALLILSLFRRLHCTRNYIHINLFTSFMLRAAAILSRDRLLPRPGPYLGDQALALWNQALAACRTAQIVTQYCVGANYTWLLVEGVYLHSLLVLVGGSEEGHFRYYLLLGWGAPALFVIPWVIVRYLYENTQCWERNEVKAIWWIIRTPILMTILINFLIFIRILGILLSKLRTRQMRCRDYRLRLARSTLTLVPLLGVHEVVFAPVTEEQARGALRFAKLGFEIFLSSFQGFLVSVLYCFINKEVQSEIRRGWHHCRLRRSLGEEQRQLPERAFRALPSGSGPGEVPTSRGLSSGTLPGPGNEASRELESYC
The conditions noted are these: cited from earlier work.

The target in assay [2] is T1, GIP receptor. Put plainly: cAMP induction, firefly luciferase-based reporter assay in HEK293 cells co-transfected with GIP receptor. Type of assay: cell-based. The conditions noted are these: EC50 at GIP Receptor. The text has this:
(§1) This example describes an exemplary method of testing the biological activity of the peptides of the present disclosures, which method involves assaying cAMP synthesis.
A general note: Reporter assays use an easily measured gene product as a stand-in for the process of interest.

In assay [3] the target is T2, glucagon receptor (Homo sapiens, UniProt P47871).
T2 construct: expressed in transfected cells; host or cells: HEK293
Put plainly: cAMP induction, firefly luciferase-based reporter assay in HEK293 cells co-transfected with glucagon receptor. Type of assay: cell-based. The conditions noted are these: for EC50: EC50 at Glucagon Receptor.
Text: as §1

Assay [4] addresses T3, GLP-1 receptor (Homo sapiens, UniProt P43220).
T3 construct: expressed in transfected cells; host or cells: HEK293
The experiment in a line: cAMP induction, firefly luciferase-based reporter assay in HEK293 cells co-transfected with GLP-1 receptor. Type of assay: cell-based. To be noted: EC50 at GLP-1 Receptor.
Text: as §1

Where [5] appears, read: Table 2, analogs of SEQ ID NO: 18 varying at positions 16-21.
Where [6] appears, read: Table 3, analogs of SEQ ID NO: 18 varying at position 3.
Where [7] appears, read: Table 4, analogs of SEQ ID NO: 43 varying at position 3.

*1 amine or outer side, *2 acyl side, *3 side chain or, on linkers, in order; H or OH if unused. Where a SMILES comes first, the peptide text is derived from it. Side-chain parts run from the residue outwards. [ ]: non-standard residue; d: D form. The star is where a group is joined. γGlu = O=C(O)[C@H](CCC(=O)[*:2])N[*:1]; Palmitoyl = CCCCCCCCCCCCCCCC(=O)*; Orn = NCCC[C@H](N)C(=O)O; Aib = CC(C)(N)C(=O)O

The EC50 is the concentration giving half of the maximal effect. Lower therefore signals an effect from little substance.

T3 sequence (P43220 24-463): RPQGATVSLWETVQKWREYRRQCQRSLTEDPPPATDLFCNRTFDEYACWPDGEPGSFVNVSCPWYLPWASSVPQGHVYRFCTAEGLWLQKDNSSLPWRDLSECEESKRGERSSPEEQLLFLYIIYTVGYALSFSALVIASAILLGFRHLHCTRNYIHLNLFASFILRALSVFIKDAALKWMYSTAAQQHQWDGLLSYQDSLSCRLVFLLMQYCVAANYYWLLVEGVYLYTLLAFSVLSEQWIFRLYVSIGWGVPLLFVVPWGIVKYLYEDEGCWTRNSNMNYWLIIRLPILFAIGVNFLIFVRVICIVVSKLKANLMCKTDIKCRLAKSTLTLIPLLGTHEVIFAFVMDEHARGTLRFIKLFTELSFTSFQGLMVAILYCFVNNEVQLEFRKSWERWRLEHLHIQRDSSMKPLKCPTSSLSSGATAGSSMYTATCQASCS
T2 sequence (P47871 26-477): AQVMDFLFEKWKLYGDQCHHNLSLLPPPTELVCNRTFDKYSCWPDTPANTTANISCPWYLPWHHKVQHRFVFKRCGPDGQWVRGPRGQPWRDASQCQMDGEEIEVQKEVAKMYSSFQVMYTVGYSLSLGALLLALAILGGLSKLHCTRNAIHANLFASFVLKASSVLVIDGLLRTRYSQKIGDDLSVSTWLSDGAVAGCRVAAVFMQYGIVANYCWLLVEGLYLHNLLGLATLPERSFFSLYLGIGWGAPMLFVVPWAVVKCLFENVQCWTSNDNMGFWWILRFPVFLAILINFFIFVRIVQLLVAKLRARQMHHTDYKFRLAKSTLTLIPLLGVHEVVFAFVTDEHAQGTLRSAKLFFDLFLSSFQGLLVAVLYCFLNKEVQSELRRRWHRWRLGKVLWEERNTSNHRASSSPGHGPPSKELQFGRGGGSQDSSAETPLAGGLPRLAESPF

Take “Native glucagon: native human glucagon (SEQ ID NO: 1)”: in assay [1], the “activation of the GIP receptor” value was “does not activate the GIP receptor”. Besides, in assay [1] (relative to native GIP), the “activity of native GIP at the GIP receptor” value is listed as ~0%.
For the compound `CCCCCCCCCCCCCCCC(=O)N[C@@H](CCC(=O)NCCCC[C@H](NC(=O)[C@H](CC(=O)O)NC(=O)[C@H](CO)NC(=O)[C@@H](NC(=O)[C@H](Cc1ccccc1)NC(=O)[C@@H](NC(=O)CNC(=O)[C@H](CCC(N)=O)NC(=O)C(C)(C)NC(=O)[C@@H](N)Cc1c[nH]cn1)[C@@H](C)O)[C@@H](C)O)C(=O)N[C@@H](CO)C(=O)N[C@@H](CCCCN)C(=O)N[C@@H](Cc1ccc(O)cc1)C(=O)N[C@@H](CC(C)C)C(=O)N[C@@H](CCC(=O)O)C(=O)N[C@@H](CCC(=O)O)C(=O)N[C@@H](CCCNC(=N)N)C(=O)N[C@@H](C)C(=O)N[C@@H](C)C(=O)N[C@@H](CCC(N)=O)C(=O)N[C@@H](CCC(=O)O)C(=O)N[C@@H](Cc1ccccc1)C(=O)N[C@H](C(=O)N[C@@H](CCC(N)=O)C(=O)N[C@@H](Cc1c[nH]c2ccccc12)C(=O)N[C@@H](CC(C)C)C(=O)N[C@@H](CC(C)C)C(=O)N[C@@H](CCC(=O)O)C(=O)NCC(=O)NCC(=O)N1CCC[C@H]1C(=O)N[C@@H](CO)C(=O)N[C@@H](CO)C(=O)NCC(=O)N[C@@H](C)C(=O)N1CCC[C@H]1C(=O)N1CCC[C@H]1C(=O)N1CCC[C@H]1C(=O)N[C@@H](CO)C(N)=O)C(C)C)C(=O)O` [compound 18] (H-H[Aib]QGTFTSDK([γGlu-Palmitoyl])SKYLEERAAQEFVQWLLEGGPSSGAPPPS-NH2), the EC50 in assay [2] (setting [5]) was determined as 0.004 nM; in assay [2] (setting [6]), 0.004 nM; in assay [3] (setting [5]), 0.005 nM; in assay [3] (setting [6]), 0.005 nM; in assay [4] (Table 1) it was 8 pM; in assay [4] (setting [5]) it was 10 pM.
For the compound `CCCCCCCCCCCCCCCC(=O)N[C@@H](CCC(=O)NCCCC[C@H](NC(=O)[C@H](CC(=O)O)NC(=O)[C@H](CO)NC(=O)[C@@H](NC(=O)[C@H](Cc1ccccc1)NC(=O)[C@@H](NC(=O)CNC(=O)[C@H](CCCNC(C)=O)NC(=O)C(C)(C)NC(=O)[C@@H](N)Cc1c[nH]cn1)[C@@H](C)O)[C@@H](C)O)C(=O)N[C@@H](CO)C(=O)N[C@@H](CCCCN)C(=O)N[C@@H](Cc1ccc(O)cc1)C(=O)N[C@@H](CC(C)C)C(=O)N[C@@H](CCC(=O)O)C(=O)N[C@@H](CCC(=O)O)C(=O)N[C@@H](CCCNC(=N)N)C(=O)N[C@@H](C)C(=O)N[C@@H](C)C(=O)N[C@@H](CCC(N)=O)C(=O)N[C@@H](CCC(=O)O)C(=O)N[C@@H](Cc1ccccc1)C(=O)N[C@H](C(=O)N[C@@H](CCC(N)=O)C(=O)N[C@@H](Cc1c[nH]c2ccccc12)C(=O)N[C@@H](CC(C)C)C(=O)N[C@@H](CC(C)C)C(=O)N[C@@H](CCC(=O)O)C(=O)NCC(=O)NCC(=O)N1CCC[C@H]1C(=O)N[C@@H](CO)C(=O)N[C@@H](CO)C(=O)NCC(=O)N[C@@H](C)C(=O)N1CCC[C@H]1C(=O)N1CCC[C@H]1C(=O)N1CCC[C@H]1C(=O)N[C@@H](CO)C(N)=O)C(C)C)C(=O)O` [compound 34] (H-H[Aib][Orn](Ac)GTFTSDK([γGlu-Palmitoyl])SKYLEERAAQEFVQWLLEGGPSSGAPPPS-NH2; N-terminus assumed), the figures for the EC50 in assay [2] (setting [6]), in assay [3] (setting [6]) and in assay [4] (setting [6]) were 0.02 nM, 0.368 nM and 1 pM, respectively.
Take `CCCCCCCCCCCCCCCC(=O)N[C@@H](CCC(=O)NCCCC[C@H](NC(=O)[C@H](CC(=O)O)NC(=O)[C@H](CO)NC(=O)[C@@H](NC(=O)[C@H](Cc1ccccc1)NC(=O)[C@@H](NC(=O)CNC(=O)[C@H](CC[S+](C)[O-])NC(=O)C(C)(C)NC(=O)[C@@H](N)Cc1c[nH]cn1)[C@@H](C)O)[C@@H](C)O)C(=O)N[C@@H](CO)C(=O)N[C@@H](CCCCN)C(=O)N[C@@H](Cc1ccc(O)cc1)C(=O)N[C@@H](CC(C)C)C(=O)N[C@@H](CC(=O)O)C(=O)N[C@@H](CCC(=O)O)C(=O)N[C@@H](CCCNC(=N)N)C(=O)N[C@@H](C)C(=O)N[C@@H](C)C(=O)N[C@@H](CCC(N)=O)C(=O)N[C@@H](CC(=O)O)C(=O)N[C@@H](Cc1ccccc1)C(=O)N[C@H](C(=O)N[C@@H](CCC(N)=O)C(=O)N[C@@H](Cc1c[nH]c2ccccc12)C(=O)N[C@@H](CC(C)C)C(=O)N[C@@H](CC(C)C)C(=O)N[C@@H](CCC(=O)O)C(=O)NCC(=O)NCC(=O)N1CCC[C@H]1C(=O)N[C@@H](CO)C(=O)N[C@@H](CO)C(=O)NCC(=O)N[C@@H](C)C(=O)N1CCC[C@H]1C(=O)N1CCC[C@H]1C(=O)N1CCC[C@H]1C(=O)N[C@@H](CO)C(N)=O)C(C)C)C(=O)O` (some centres unmarked) [compound 46]: the EC50 was 0.018 nM in assay [2] (setting [7]), 0.089 nM in assay [3] (setting [7]) and 3 pM in assay [4] (setting [7]).
As to `CCCCCCCCCCCCCCCC(=O)N[C@@H](CCC(=O)NCCCC[C@H](NC(=O)[C@H](CC(=O)O)NC(=O)[C@H](CO)NC(=O)[C@@H](NC(=O)[C@H](Cc1ccccc1)NC(=O)[C@@H](NC(=O)CNC(=O)[C@H](CC(C)C)NC(=O)C(C)(C)NC(=O)[C@@H](N)Cc1c[nH]cn1)[C@@H](C)O)[C@@H](C)O)C(=O)N[C@@H](CO)C(=O)N[C@@H](CCCCN)C(=O)N[C@@H](Cc1ccc(O)cc1)C(=O)N[C@@H](CC(C)C)C(=O)N[C@@H](CCC(=O)O)C(=O)N[C@@H](CCC(=O)O)C(=O)N[C@@H](CCCNC(=N)N)C(=O)N[C@@H](C)C(=O)N[C@@H](C)C(=O)N[C@@H](CCC(N)=O)C(=O)N[C@@H](CCC(=O)O)C(=O)N[C@@H](Cc1ccccc1)C(=O)N[C@H](C(=O)N[C@@H](CCC(N)=O)C(=O)N[C@@H](Cc1c[nH]c2ccccc12)C(=O)N[C@@H](CC(C)C)C(=O)N[C@@H](CC(C)C)C(=O)N[C@@H](CCC(=O)O)C(=O)NCC(=O)NCC(=O)N1CCC[C@H]1C(=O)N[C@@H](CO)C(=O)N[C@@H](CO)C(=O)NCC(=O)N[C@@H](C)C(=O)N1CCC[C@H]1C(=O)N1CCC[C@H]1C(=O)N1CCC[C@H]1C(=O)N[C@@H](CO)C(N)=O)C(C)C)C(=O)O` [compound 32] (H-H[Aib]LGTFTSDK([γGlu-Palmitoyl])SKYLEERAAQEFVQWLLEGGPSSGAPPPS-NH2), the EC50 in assay [2] (setting [6]) was determined as 0.73 nM; in assay [4] (setting [6]) it was 388 pM. Besides, the “EC50 at Glucagon Receptor” value in assay [3] (setting [6]) is “Not active”.
